Test results reported in PubChem BioAssay (NCI).
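Briefly, cells in 96-well plates were exposed to five compound concentrations for 48 h, and endpoints were estimated by linear interpolation. At the GI50, growth is halved. TGI is the concentration that stops growth completely.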 Where a SMILES comes first, the peptide text is derived from it. [ ]: non-standard residue; d: D form. The star is where a group is joined. ξ: configuration not given here. ξF = NC(Cc1ccccc1)C(=O)O; Cbz = O=C(OCc1ccccc1)*; Aib = CC(C)(N)C(=O)O

What was measured:
Assay in all cases: NCI-60 cell line screen, 48 h
M14 melanoma = system: M14 melanoma
SF-268 CNS = system: SF-268 CNS
OVCAR-3 ovarian = system: OVCAR-3 ovarian
IGROV1 ovarian = system: IGROV1 ovarian
HCT-15 colon = system: HCT-15 colon
MOLT-4 leukemia = system: MOLT-4 leukemia
COLO 205 colon = system: COLO 205 colon
PC-3 prostate = system: PC-3 prostate
UACC-257 melanoma = system: UACC-257 melanoma
SF-539 CNS = system: SF-539 CNS

SMILES	TGI (M14 melanoma)	TGI (SF-268 CNS)	TGI (OVCAR-3 ovarian)	TGI (IGROV1 ovarian)	TGI (HCT-15 colon)	TGI (MOLT-4 leukemia)	TGI (COLO 205 colon)	TGI (PC-3 prostate)	TGI (UACC-257 melanoma)	TGI (SF-539 CNS)	GI50 (M14 melanoma)	GI50 (SF-268 CNS)	GI50 (SF-539 CNS)	GI50 (OVCAR-3 ovarian)	GI50 (IGROV1 ovarian)	GI50 (HCT-15 colon)	GI50 (MOLT-4 leukemia)	GI50 (COLO 205 colon)	GI50 (PC-3 prostate)	GI50 (UACC-257 melanoma)
COC(=O)C(C)(C)NC(=O)C(Cc1ccccc1)NC(=O)C(C)(C)NC(=O)OCc1ccccc1 (stereo not given) (Cbz-[Aib]-[ξF]-[Aib]-OMe)	> 100 µM	> 100 µM	> 100 µM	> 100 µM	> 100 µM	> 100 µM	> 100 µM	> 100 µM	> 100 µM											
Nc1c(-c2ccccc2[N+](=O)[O-])nc2ccccn12	> 100 µM	> 100 µM	> 100 µM	> 100 µM	> 100 µM	> 100 µM	> 100 µM		> 100 µM											
C(=N\OCCc1ccccc1)/c1cccnc1	> 100 µM	> 100 µM	> 100 µM	> 100 µM	> 100 µM	> 100 µM	> 100 µM	> 100 µM	> 100 µM	> 100 µM										
Clc1ccc(-c2ccc(-c3nnc(COc4ccc(OCc5nnc(-c6ccc(-c7ccc(Cl)cc7Cl)o6)o5)c(Cl)c4)o3)o2)c(Cl)c1	> 100 µM	> 100 µM	> 100 µM	> 100 µM	> 100 µM	64.2 µM	> 100 µM		> 100 µM											
CCCCOCc1cc(CN2CCN(C)CC2)c(O)c2ncccc12	90 µM	> 100 µM	> 100 µM	97.3 µM	33.7 µM	77.2 µM	> 100 µM		> 100 µM	76.7 µM										
COc1cc(Nc2nnc3n2S(=O)(=O)c2cc(C)c(Cl)cc2S3)cc(OC)c1	> 100 µM	50.7 µM	28.2 µM	6.26 µM	> 100 µM	60.9 µM	> 100 µM	47 µM	> 100 µM	6.31 µM										
c1cncc(O[Si](Oc2cccnc2)(Oc2cccnc2)Oc2cccnc2)c1	> 100 µM		> 100 µM	> 100 µM	> 100 µM	> 100 µM	> 100 µM		> 100 µM	> 100 µM										
NCCSCc1ccccc1Cl	> 100 µM	> 100 µM	82.9 µM	> 100 µM	> 100 µM	86.3 µM		93.8 µM	51.9 µM											
Cc1ccc(N2CCN(CCC(=O)O)CC2)cc1	> 100 µM	> 100 µM	> 100 µM	> 100 µM	> 100 µM		> 100 µM	> 100 µM	> 100 µM	> 100 µM										
C[CH2][Ge]([CH2]C)([CH2]C)[O]C(=O)CCC(=O)[O][Ge]([CH2]C)([CH2]C)[CH2]C	> 100 µM	> 100 µM	> 100 µM	> 100 µM	> 100 µM	> 100 µM	> 100 µM			> 100 µM	> 100 µM	> 100 µM	> 100 µM	66 µM	> 100 µM	48.4 µM	39 µM	> 100 µM		
N=C(N)c1ccc(-c2ccc(-c3cccs3)s2)s1		3.48 µM						2.98 µM	3.11 µM	2.96 µM		1.79 µM	1.58 µM						1.53 µM	1.66 µM
COc1cc(-c2n/c(=C\c3c(O)[nH]c4cc(Cl)ccc34)cc3c2=Nc2ccccc2-3)cc(OC)c1OC	5.66 µM	10.5 µM	6.69 µM	51.1 µM	> 100 µM	8.35 µM		58.4 µM	18.8 µM	30.8 µM	2.41 µM	2.72 µM	11.2 µM	2.13 µM	5.56 µM	30.9 µM	2.72 µM		4.59 µM	4.01 µM
COc1ccc(/C=C2\Sc3nnc(CNc4ccc(Cl)cc4)n3N=C2c2cc(F)c(Cl)cc2Cl)cc1OC	> 100 µM	> 100 µM	> 100 µM	> 100 µM	> 100 µM	> 100 µM		> 100 µM	> 100 µM	> 100 µM										
CCOc1ccc(N=NS(=O)(=O)O)cc1	> 100 µM	> 100 µM	> 100 µM	> 100 µM	> 100 µM		> 100 µM	> 100 µM	> 100 µM	> 100 µM										
CC(C)(CCCCC(C)(C)C1NC(=O)N1)C1NC(=O)N1	> 10 µM	> 10 µM		> 10 µM	> 10 µM	> 10 µM	> 10 µM	> 10 µM		> 10 µM										
CC(C)CC(NC(=O)C(Cc1ccccc1)NC(=O)C(Cc1c[nH]c2ccccc12)NC(=O)CNC(=O)C(N)Cc1ccc(O)cc1)C(=O)O (stereo not given) (H-YGWFL-OH; configuration not given here)	> 100 µM	> 100 µM	57 µM	> 100 µM	> 100 µM	> 100 µM	32.9 µM	> 100 µM	> 100 µM	87 µM										
CC(=O)ON1C(=O)c2cccc3cccc(c23)C1=O	90.9 µM	> 100 µM	68.9 µM	> 100 µM	> 100 µM	43 µM	86.7 µM	> 100 µM	67 µM	48.3 µM										
O=c1c2cc(I)ccc2nc(SCc2n[nH]c(=S)o2)n1Cc1ccccc1	43.6 µM	32.9 µM	31.1 µM	35.3 µM	34 µM	65.3 µM	22.8 µM	31.3 µM	38.1 µM	30.3 µM										
COC1=CC(=O)c2c(c(COP(=O)(N(C)CCBr)N(C)CCBr)cn2C)C1=O	0.259 µM	1.75 µM	0.877 µM	3.93 µM	0.193 µM	> 100 µM	0.209 µM	7.02 µM	1.2 µM	0.0678 µM										
CC(C)(C)c1cc(OCc2nnc3sc(=S)[nH]n23)c(Cl)cc1OCc1nnc2sc(=S)[nH]n12	75.7 µM	> 100 µM	63.6 µM	66.4 µM	> 100 µM	> 100 µM	> 100 µM	> 100 µM	83.8 µM	> 100 µM										
Cc1ccc(C(O)(c2ccc(C)cc2)c2ccccn2)cc1	> 100 µM	> 100 µM	> 100 µM	> 100 µM	> 100 µM		> 100 µM		> 100 µM	> 100 µM										
